Measurements: US20080119530A1, “Method for treatment and prevention of ultraviolet light induced skin pathologies” (priority 2006, published 2008)

Tested on: Cdc25a
Experiment: Cdc25a immunoblotting in keratinocytes
Format: cell-based, mouse
Conditions: vs appropriate controls
Method: Immunoblotting. Flash frozen skin was ground with a mortar and pestle on dry ice, homogenized in lysis buffer containing 10 mM Tris (pH 7.4), 150 mM NaCl, 10% glycerol, 1% Triton X-100, 1 mM EDTA, Complete Protease Inhibitor Cocktail (Roche, Germany), 1 mM Na3V O4, 1.5 μM EGTA, and 10 μM NaF. Protein was quantified using the Coomassie Brilliant Blue G-250 protein assay (Bio-Rad, Hercules, Calif.). The evenness of loading and transfer was determined by staining with Ponceau S and by actin immunoblotting. […]
Cell culture. […] Transfection efficiency was quantified by determining the proportion of the cells that incorporated the fluorescent Cy3-conjugated siRNA or GFP one day post-transfection. […]
In order to understand how Erbb2 regulates S-phase progression following UV irradiation, signaling pathways known to regulate progression into and through S-phase were examined. […] The effect of abrogation of Erbb2 on Cdc25a occurred post-transcriptionally, since no decrease in Cdc25a mRNA was detected in our microarray analysis using the Erbb2 inhibitor (32). […]

COc1cc(/C=C(\C#N)C(N)=O)cc(CSc2nc3ccccc3s2)c1O [AG825]
Cdc25a immunoreactivity: decreased
